According to paper PMC6013238, “Development of novel NEMO-binding domain mimetics for inhibiting IKK/NF-κB activation” (PLoS Biology, 2018):
Several values for one entry are separate records, joined by “and”; a condition that tells them apart may be missing. Identical values can stand only once.

System: NF-κB target genes
Test: LPS-induced acute inflammation, qRT-PCR of NF-κB target genes in lung and liver
Format: in vivo, mouse
Protocol: Fig 6 Newly identified NBD mimetics suppress LPS-induced acute inflammation in vivo. (A) The bioavailability property of SR12460, SR12343, SR12454, and SR11481. Concentrations of NBD mimetics were determined in plasma, brain, muscle, spleen, and liver 2 h post a single i.p. injection of 10 mg/kg of drugs; n = 3 per group. (B) Shown is the model to induce LPS-mediated acute inflammation and the treatment regimen with NBD mimetics. Mouse image via http://www.clker.com/clipart-mice-blank.html (copyright-free). (C) NBD mimetics suppressed LPS-induced acute inflammation in liver and lung by down-regulating NF-κB target gene expression. Vehicle, SR12343, SR12460, and 8K-NBD peptide were dosed at 10 mg/kg 30 min prior to the LPS treatment. Acute inflammation was induced by i.p. injection of 10 mg/kg LPS. Lung and liver were collected 2–4 h post injection, and mRNA was extracted for qRT-PCR analysis. (D, E) Western blot analysis was performed to probe for the expression of p-IκBα and COX-2 at protein level in liver and lung tissues. (F) Serum levels of IL-6 were determine by ELISA. n = 3–8 each group. *P < 0.05, **P < 0.01. Underlying data can be found in S1 Data. COX-2, cyclooxygenase 2; IL-6, interleukin 6; i.p., intraperitoneal; LPS, lipopolysaccharide; NBD, NEMO-binding domain; n.d., nondetectable; NEMO, NF-κB essential modulator; NF-κB, nuclear factor κB; qRT-PCR, quantitative real-time polymerase chain reaction. TEXT PRINTED IN THE PICTURE: (A) SR11481: Concentration (ng/ml): n.d. (plasma)
To determine their NF-κB inhibitory effects in vivo, SR12343 and SR12460 were tested in an acute model of LPS-induced systemic endotoxemia. C57BL/6J mice were pretreated with vehicle control, 8K-NBD peptide, or NBD mimetics at 10 mg/kg for 30 min, followed by LPS induction at 10 mg/kg (Fig 6B). Lung and liver were harvested 2–4 h post treatment for qRT-PCR analysis of NF-κB target genes. […] Despite lower plasma and tissue concentrations of SR12343 compared to SR12460, its inhibition of NF-κB/IKK in liver and lung were greater than that of SR12460 (Fig 6C). Similarly, acute treatment with SR12343 also affected the LPS-induced expression of NF-κB target genes at protein level. The extent of phosphorylation of IκBα and the levels of COX-2 were reduced in lung and liver tissues treated with SR12343 (Fig 6D and 6E). […] However, no significant differences in lung histopathology were observed. Finally, there was a slight reduction in the number of white blood cells and neutrophils in the SR12343-treated group (Table 2).
LPS (strain O111:B4) was prepared in PBS at a sublethal dose of 10 mg/kg. Female WT mice 8 to 10 wk old (20–30 g) were dosed by i.p. injection with vehicle, NBD peptide (10 mg/kg), or small molecules (10 mg/kg) for 30 min, followed by i.p. injection of saline (1 mL/kg) or LPS (10 mg/kg). Mice were euthanized 2 to 4 h post treatment, and lung and liver tissues were collected for further analysis.
Snap-frozen tissues were preserved in RNAlater RNA stabilization solution (ThermoFisher). Total RNA was extracted from cells or tissues by using TRIZOL reagent (Life Technologies), and 1,500 ng of mRNA was subjected to synthesis of cDNA using SuperScript VILO cDNA synthesis kit. qRT-PCR was performed in a StepOnePlus Real-Time PCR system using Platinum SYBR Green qPCR SuperMix-UDG (ThermoFisher). Target gene expression was calculated using the comparative CT method (ΔΔCT) by normalizing to an internal control gene Actb (β-actin). […]

[1] = Fig 6C, 10 mg/kg 30 min before LPS 10 mg/kg i.p., 2-4 h, single mice

In the case of `O=C(CNCCc1cc(F)cc(F)c1)Nc1ccc(Cl)cn1` [SR12460], the “iNOS mRNA in lung (qRT-PCR, relative to vehicle)” value [1] is reported as 0.4025 and 0.5396 and 0.4809 and 0.7846 and 0.6512 and 0.5854 and 0.4587 and 0.5387 and the “ikBa mRNA in lung (qRT-PCR, relative to vehicle)” value [1] is reported as 0.8864 and 1.179 and 0.7265 and 0.7577 and 0.6496 and 0.9355 and 0.7819.

`O=C(CNc1ccc(Cl)cn1)NCCc1cccc(Br)c1` [SR12343] was tested, and the “NF-κB transcriptional activity in lung (iNOS, IκBα, COX-2, IL-6)” value (10 mg/kg, LPS 10 mg/kg) was “significantly inhibit”, the “ikBa mRNA in liver (qRT-PCR, relative to vehicle)” value [1] was 1.072 and 1.242 and 1.317 and 1.467 and 0.7748 and 0.7346 and 1.371 and the “ikBa mRNA in lung (qRT-PCR, relative to vehicle)” value [1] was 0.8689 and 0.6292 and 0.6865 and 0.9681 and 0.6797 and 1.015 and 0.7177.
